Assay results reported in patent US6403590B1, “Use of certain isoquinolinesulfonyl compounds for the treatment of glaucoma and ocular ischemia” (Alcon Laboratories, Inc., priority 1995, dated 2002).

Tests used:
[1] = system: Bulbar Conjunctiva (conjunctival hyperemia); experiment: Guinea pig conjunctival hyperemia model; type: in vivo; settings: cumulative incidence; percent of eyes scoring +2 or more; scored 1, 2, 3, 4 hours after instillation
Method: A guinea pig model was used to assess the potential of the compounds to cause conjunctival hyperemia as measured by vasodilation. Compound was instilled and hyperemia was scored at 1, 2, 3, and 4 hours following dosing. Reported above is the cumulative incidence of hyperemia over the 4 hour period. Incidence of hyperemia (Bulbar Conjunctiva) was calculated as the percent of eyes scoring +2 or more, according to the following graded scale: 0 Normal appearance of vessels at limbus and rectus muscle 1 Enlargement of vessels normally visible at limbus and rectus muscle 2 Branching of vessels at limbus, additional vessels visible 3 Additional vessels visible in open bulbar conjunctival areas 4 Diffuse redness in open bulbar conjunctival areas

[2] = system: laser-induced hypertensive primates; experiment: IOP in laser-induced ocular hypertensive monkeys (lasered MIOP), topical dosing; type: in vivo, monkey; settings: for MIOP IOP % Reduction, 1 hour: 1 hour post-dose; for MIOP IOP % Reduction, 3 hours: 3 hours post-dose; for MIOP IOP % Reduction, 6 hours: 6 hours post-dose
Method: Monkey intraocular pressure (MIOP) were obtained from laser-induced hypertensive primates in the manner described in Examples 1 and 4 below at 1, 3, and 6 hours post-dose.
(§1) The hydrochloride salt of Compound II, also known as fasudil hydrochloride or just fasudil, was topically administered to eyes of ocular normotensive and hypertensive monkeys, New Zealand Albino (NZA) and Dutch Belted (DB) rabbits.

Dutch Belted (DB) rabbit = experiment: IOP in Dutch Belted rabbits, topical dosing; type: in vivo
Method: as §1
Compound II (hydrochloride) was administered topically to the eyes of Dutch Belted (DB) rabbits in doses of 75 and 150 μg.

[3] = system: New Zealand Albino (NZA) rabbit; experiment: IOP in New Zealand Albino rabbits, topical dosing; type: in vivo; settings: four hour dose response
Method: as §1
A dose study similar to that described in Example 2 was conducted with the NZA rabbit. Compound II (hydrochloride) was administered in a topical ocular fashion in doses of 50, 125 and 250 μg.
Other isoquinolinesulfonamides were topically administered to the eyes of New Zealand Albino (NZA) rabbits.
All drugs were administered to eyes in a topical manner at a dose=500 μg (2×25 μl). All compounds were formulated in phosphate buffered saline containing 0.01% benzalkonium chloride, and in all instances N=7.

[4] = system: ocular normotensive monkey; experiment: IOP in ocular normotensive monkeys, topical dosing; type: in vivo, cynomolgus monkey
Method: as §1
The effect of repeated doses of Compound II on the magnitude and duration of IOP reduction was evaluated in ocular normotensive monkeys.

CC1CN(S(=O)(=O)c2cccc3cnccc23)C(C)CN1 (stereo not shown) [D, 1-(5-isoquinolinesulfonyl)-2,5-dimethylpiperazine]
Guinea Pig Hyperemia (Cumulative over 4 hours) [1]: 20% | MIOP IOP % Reduction, 1 hour ([2]; dose 500 μg): 36.3% | MIOP IOP % Reduction, 3 hours ([2]; dose 500 μg): 32.8% | MIOP IOP % Reduction, 6 hours ([2]; dose 500 μg): 19.3% | IOP lowering effect ([2]; laser-induced hypertensive primates, compared with the other compounds of Example E): markedly superior IOP lowering effect

O=S(=O)(c1cccc2cnccc12)N1CCCNCC1 [Fasudil, hexahydro-1-(5-isoquinolinylsulfonyl)-1H-1,4-diazepine]
IOP lowering (Dutch Belted (DB) rabbit): lowered IOP in the DB rabbit; however, the reduction in IOP was not sustained | IOP lowering [3]: IOP was marketedly lowered below base line | Guinea Pig Hyperemia (Cumulative over 4 hours) [1]: 75% | IOP reduction after repeated doses ([4]; ocular normotensive monkeys, total of 900 μg in three doses, ten minutes apart): significant IOP reduction | IOP lowering ([4]; ocular normotensive primates, topical): effectively lowered IOP | MIOP IOP % Reduction, 1 hour ([2]; dose 500 μg): 21.9% | MIOP IOP % Reduction, 3 hours ([2]; dose 500 μg): 14.6% | MIOP IOP % Reduction, 6 hours ([2]; dose 500 μg): 23.4% | IOP lowering ([2]; ocular hypertensive (laser-induced) primates, topical): effectively lowered IOP

O=S(=O)(c1cccc2c(Cl)nccc12)N1CCNCC1 [1-(1-chloro-5-isoquinolinesulfonyl)-piperazine]
Guinea Pig Hyperemia (Cumulative over 4 hours) [1]: 10% | MIOP IOP % Reduction, 1 hour ([2]; dose 500 μg): 7.9% | MIOP IOP % Reduction, 3 hours ([2]; dose 500 μg): 11.9% | MIOP IOP % Reduction, 6 hours ([2]; dose 500 μg): 9.4%

CC1CN(S(=O)(=O)c2cccc3cnccc23)CCN1 (stereo not shown) [Example H-7, 1-(5-isoquinolinesulfonyl)-3-methylpiperazine]
Guinea Pig Hyperemia (Cumulative over 4 hours) [1]: 0% | MIOP IOP % Reduction, 1 hour ([2]; dose 1000 μg): 30.9% | MIOP IOP % Reduction, 3 hours ([2]; dose 1000 μg): 20.9% | MIOP IOP % Reduction, 6 hours ([2]; dose 1000 μg): 11.6%
